IC50 data for 27 compounds are collected here from EP4778929A1, “NOVEL TYPE I TOPOISOMERASE INHIBITOR, AND PREPARATION METHOD THEREFOR AND USE THEREOF” (priority 2023, dated 2025).

Some results are limits rather than exact numbers.

This test relates to HCT116 cells. In words: Inhibition of cell proliferation by CTG (CellTiter-Glo) luminescence assay. Format: cell-based. To be noted: Homo sapiens, HCT-116; 72 h incubation, CellTiter-Glo; read-out: HCT116, IC50. The source says:
Test Example 2. Determination of Compound-Mediated Inhibition of Cell Proliferation by CTG (CellTiter-Glo) Luminescence Assay
Principle: The Promega CellTiter-Glo™ luciferase reagent was used. Luciferase consumes ATP to generate light; metabolically active cells continuously produce ATP through respiration and other processes. After adding an equal volume of CellTiter-Glo™ reagent to the culture medium, the resulting luminescence is directly proportional to the ATP content, which in turn correlates with the number of viable cells. Thus, the assay quantifies compound-induced suppression of cell proliferation.
Experimental Procedure: HCT116 cells (ATCC) were revived in complete medium (McCoy's 5a + 10 % FBS). After two passages, exponentially growing cells were harvested, counted, and resuspended to the appropriate density. A 100 µL aliquot of cell suspension (2 000 cells per well) was seeded into 96-well plates and incubated overnight (37 °C, 5 % CO2, 100 % relative humidity). Test compounds were dissolved in DMSO to prepare 10 mM stock solutions and serially diluted 1:3 in DMSO to generate nine concentration steps. Each DMSO solution was further diluted 200-fold into medium; 25 µL of the resulting solutions were added to the cell plates (final DMSO concentration […]). After 72 h incubation (37 °C, 5 % CO2), 50 µL of CellTiter-Glo reagent was added per well. Plates were shaken gently, incubated for 30 min at room temperature in the dark, and luminescence was read on an EnVision multimode reader. Percent inhibition was calculated as: Inhibition % = (1−As/Ac) × 100, [formula] where As = signal from compound-treated wells and Ac = signal from DMSO-only control wells. Concentration-response data were fitted in Excel with the XLfit add-in using the four-parameter logistic equation: Y = Bottom + (Top−Bottom)/[1+((IC50/X))^(∧)HillSlope], [formula] to derive the IC50 value for each compound. Table 2. IC50 of compounds
Take `CC[C@@]1(O)C(=O)OCc2c1cc1n(c2=O)Cc2c-1c(=O)c1cc(F)c([C@H](O)C(F)(F)F)cc1n2C1CCCC1` (single isomer, unassigned) [Example 347]: the IC50 was less than 20 nM.
With `CCN1CC[C@@H](n2c3c(c(=O)c4cc(F)ccc42)-c2cc4c(c(=O)n2C3)COC(=O)[C@]4(O)CC)C1` [Example 251, (S)-4-ethyl-8-fluoro-4-hydroxy-11-((R)-1-ethylpyrrolidin-3-yl)-1,12-dihydro-14H-pyrano[3',4':6,7]indolizino[2,1-b] quinoline-3,6,14(4H,11H)-trione] the figure was less than 20 nM; with `CC[C@@]1(O)C(=O)OCc2c1cc1n(c2=O)Cc2c-1c(=O)c1cc(F)ccc1n2[C@@H]1CCN(C2CC(C)(C)C2)C1` [Example 254, (S)-4-ethyl-8-fluoro-4-hydroxy-11-((R)-1-(3,3-dimethylcyclobutyl)pyrrolidin-3-yl)-1,12-dihydro-14H-pyrano[3',4':6,7]indolizino[2,1-b]quinoline-3,6,14(4H,11H)-trione], less than 20 nM; with `CC[C@@]1(O)C(=O)OCc2c1cc1n(c2=O)Cc2c-1c(=O)c1cc(F)ccc1n2[C@@H]1CCN(C2CC(F)(F)C2)C1` [Example 255, (S)-4-ethyl-8-fluoro-4-hydroxy-11-((R)-1-(3,3-difluorocyclobutyl)pyrrolidin-3-yl)-1,12-dihydro-14H-pyrano[3',4':6,7]indolizino[2,1-b]quinoline-3,6,14(4H,11H)-trione], less than 20 nM.
Under `CCCN1CC[C@@H](n2c3c(c(=O)c4cc(F)ccc42)-c2cc4c(c(=O)n2C3)COC(=O)[C@]4(O)CC)C1` [Example 258, (S)-4-ethyl-8-fluoro-4-hydroxy-11-((R)-1-n-propylpyrrolidin-3-yl)-1,12-dihydro-14H-pyrano[3',4':6,7]indolizino[2,1-b] quinoline-3,6,14(4H,11H)-trione] stands less than 20 nM; under `CC[C@@]1(O)C(=O)OCc2c1cc1n(c2=O)Cc2c-1c(=O)c1cc(F)ccc1n2[C@@H]1CCN(CC(C)C)C1` [Example 260, (S)-4-ethyl-8-fluoro-4-hydroxy-11-((R)-1-isobutylpyrrolidin-3-yl)-1H-pyrano[3',4':6,7]indolizino[2,1-b]quinoline-3,6,14 (4H,11H,12H)-trione], less than 20 nM; under `CCC(CC)N1CC[C@@H](n2c3c(c(=O)c4cc(F)ccc42)-c2cc4c(c(=O)n2C3)COC(=O)[C@]4(O)CC)C1` [Example 261, (S)-4-ethyl-8-fluoro-4-hydroxy-11-((R)-1-(pentan-3-yl)pyrrolidin-3-yl)-1H-pyrano[3,4:6,7]indolizino[2,1-b]quinoline-3,6,14 (4H,11H,12H)-trione], less than 20 nM.
Regarding `CC[C@@]1(O)C(=O)OCc2c1cc1n(c2=O)Cc2c-1c(=O)c1cc(F)ccc1n2[C@@H]1CCN(C(C)C)C1` [Example 263, (S)-4-ethyl-8-fluoro-4-hydroxy-11-((R)-1-isopropylpyrrolidin-3-yl)-1H-pyrano[3,4:6,7]indolizino[2,1-b]quinoline-3,6,14 (4H,11H,12H)-trione], the 50% inhibitory concentration (IC50) is less than 20 nM.
On to `CC[C@@]1(O)C(=O)OCc2c1cc1n(c2=O)Cc2c-1c(=O)c1cc(F)ccc1n2[C@@H]1CCN(C2CCC(F)(F)CC2)C1` [Example 267, (S)-11-((R)-1-(4,4-difluorocyclohexyl)pyrrolidin-3-yl)-4-ethyl-8-fluoro-4-hydroxy-1H-pyrano[3,4:6,7]indolizino[2,1-b]quinoline-3,6,14(4H,11H,12H)-trione], for which the IC50 is less than 20 nM.
With `CC[C@@]1(O)C(=O)OCc2c1cc1n(c2=O)Cc2c-1c(=O)c1cc(F)ccc1n2[C@@H]1CCN(C2CC3(CCC3)C2)C1` [Example 270, (S)-4-ethyl-8-fluoro-4-hydroxy-11-((R)-1-(spiro[3.3]heptan-2-yl)pyrrolidin-3-yl)-1H-pyrano[3,4:6,7]indolizino[2,1-b] quinoline-3,6,14(4H,11H,12H)-trione] the figure was less than 20 nM.
Under `CC[C@@]1(O)C(=O)OCc2c1cc1n(c2=O)Cc2c-1c(=O)c1cc(F)ccc1n2[C@@H]1CCN(C2CC3(CC3)C2)C1` [Example 271, (S)-4-ethyl-8-fluoro-4-hydroxy-11-((R)-1-(spiro[2.3]hexan-5-yl)pyrrolidin-3-yl)-1H-pyrano[3',4':6,7]indolizino[2,1-b]quinoline-3,6,14(4H,11H,12H)-trione] stands less than 20 nM; under `CC[C@@]1(O)C(=O)OCc2c1cc1n(c2=O)Cc2c-1c(=O)c1cc(F)ccc1n2[C@@H]1CCN(C2CC3CC3C2)C1` (stereo partly drawn) [Example 273, (4S)-11-((3R)-1-(bicyclo[3.1.0]hexan-3-yl)pyrrolidin-3-yl)-4-ethyl-8-fluoro-4-hydroxy-1H-pyrano[3',4':6,7]indolizino[2,1-b]quinoline-3,6,14(4H,11H,12H)-trione], less than 20 nM.
As for `CC[C@@]1(O)C(=O)OCc2c1cc1n(c2=O)Cc2c-1c(=O)c1cc(F)ccc1n2[C@@H]1CCN(C2CC2)C1` [Example 274, (4S)-11-((3R)-1-cyclopropylpyrrolidin-3-yl)-4-ethyl-8-fluoro-4-hydroxy-1H-pyrano[3',4':6,7]indolizino[2,1-b]quinoline-3,6,14(4H,11H,12H)-trione], the half-inhibitory concentration (IC50) was less than 20 nM.
Under `CC[C@@]1(O)C(=O)OCc2c1cc1n(c2=O)Cc2c-1c(=O)c1cc(F)c(F)cc1n2[C@@H]1CCN(C)C1` [Example 277] stands less than 20 nM; under `CC[C@@]1(O)C(=O)OCc2c1cc1n(c2=O)Cc2c-1c(=O)c1cc(F)c(C)cc1n2[C@@H]1CCN(C2CC(F)(F)C2)C1` [Example 280], less than 20 nM; under `CC[C@@]1(O)C(=O)OCc2c1cc1n(c2=O)Cc2c-1c(=O)c1cc(F)c(Cl)cc1n2[C@@H]1CCN(C2CCC2)C1` [Example 282], less than 20 nM.
With `CC[C@@]1(O)C(=O)OCc2c1cc1n(c2=O)Cc2c-1c(=O)c1cc(F)c(Cl)cc1n2[C@@H]1CCN(C)C1` [Example 283] the figure was less than 20 nM; with `CC[C@@]1(O)C(=O)OCc2c1cc1n(c2=O)Cc2c-1c(=O)c1cc(F)c(CO)cc1n2C1CC2(CCC2)C1` [Example 312], less than 20 nM.
Under `CC[C@@]1(O)C(=O)OCc2c1cc1n(c2=O)Cc2c-1c(=O)c1cc(F)c(CC(C)O)cc1n2C1CCC(C)(C)CC1` (stereo partly drawn) [Example 317] stands less than 20 nM; under `CCC1(O)C(=O)OCc2c1cc1n(c2=O)Cc2c-1c(=O)c1cc(F)c(CO)cc1n2C12CC(C1)C2` (stereo not drawn) [Example 327], less than 20 nM.
For the compound `CC[C@@]1(O)C(=O)OCc2c1cc1n(c2=O)Cc2c-1c(=O)c1cc(F)c(N)cc1n2-c1cc(C)cc(C)c1` [Example 350], the half-maximal inhibitory concentration (IC50) is less than 20 nM.
With `CC[C@@]1(O)C(=O)OCc2c1cc1n(c2=O)Cc2c-1c(=O)c1cc(F)c(N)cc1n2C1CC2(CCC2)C1` [Example 358] the figure was less than 20 nM; with `CC[C@@]1(O)C(=O)OCc2c1cc1n(c2=O)Cc2c-1c(=O)c1cc(F)c(N)cc1n2C12CC(C1)C2` [Example 359], less than 20 nM.
Under `CC[C@@]1(O)C(=O)OCc2c1cc1n(c2=O)Cc2c-1c(=O)c1cc(F)ccc1n2[C@@H]1CCCN(C2CCCC2)C1` [Example 370] stands less than 20 nM; under `CC[C@@]1(O)C(=O)OCc2c1cc1n(c2=O)Cc2c-1c(=O)c1cc(F)ccc1n2[C@H]1CCCN(C2CC(F)(F)C2)C1` [Example 372], less than 20 nM; under `CC[C@@]1(O)C(=O)OCc2c1cc1n(c2=O)Cc2c-1c(=O)c1cc(F)ccc1n2C[C@H]1CCN(C2CC(F)(F)C2)C1` [Example 402], less than 20 nM.
Consider `CC[C@@]1(O)C(=O)OCc2c1cc1n(c2=O)Cc2c-1c(=O)c1cc(F)ccc1n2C[C@H]1CCN(C(C)C)C1` [Example 404], for which the half-maximal inhibitory concentration (IC50) is less than 20 nM.
